Our source for the IC50 values is patent US10961231B2, “NTCP inhibitors” (National Institute of Biological Sciences, Beijing, priority 2018, dated 2021).

Usually IC50 stands for the concentration needed to halve the response being measured. Low values mean higher potency, high ones lower potency.

Structures are written as SMILES.

In one test the target is T1, NTCP (Homo sapiens, UniProt Q14973).
T1 sequence (Q14973 1-349): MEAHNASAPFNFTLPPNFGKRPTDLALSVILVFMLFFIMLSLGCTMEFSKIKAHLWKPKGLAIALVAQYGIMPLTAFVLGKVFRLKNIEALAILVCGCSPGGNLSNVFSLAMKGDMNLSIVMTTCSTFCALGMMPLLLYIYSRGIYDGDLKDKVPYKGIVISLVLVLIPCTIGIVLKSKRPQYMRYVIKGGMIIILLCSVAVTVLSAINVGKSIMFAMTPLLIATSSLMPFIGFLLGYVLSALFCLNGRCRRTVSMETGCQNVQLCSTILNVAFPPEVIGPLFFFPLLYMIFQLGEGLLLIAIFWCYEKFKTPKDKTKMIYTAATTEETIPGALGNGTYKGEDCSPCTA
As to the kind of experiment: [3H]-TCA uptake assay (NTCP inhibition). The test is classed as cell-based. Particulars: IC50, given as a range, marked * (asterisk not explained). As to the method:
[^3H]-TCA uptake assay. PTH and HepG2-NTCP cells were cultured in PMM for 24 hours to induce NTCP expression. After treated by DMSO or test compounds for 2 hours, the cells were then incubated with 1 μM [^3H]-taurocholate acid dissolved in Na^+ Ringer's buffer (the concentration of Na was 145 mM) for 15 minutes at 37° C. Subsequently, the cells were washed once in phosphate-buffered saline (PBS) and lysed in 50 μL 1% TritonX-100 in H2O for 5 minutes at room temperature. The lysate were totally transferred into a liquid scintillation 96 well plate and mixed with 200 μL liquid scintillation cocktail (Ultima Gold XR, PerkinElmer). Liquid scintillation counting was performed on a PerkinElmer 1450 LSC liquid scintillation counter.
As to `CCC1NC(=O)C(C2OC(Sc3cccc(OCc4cccs4)c3)CC2C)N(C)C(=O)C(C(C)C)N(C)C(=O)C(CC(C)C)N(C)C(=O)C(CC(C)C)N(C)C(=O)C(C)NC(=O)C(C)NC(=O)C(CC(C)C)N(C)C(=O)C(C(C)C)NC(=O)C(CC(C)C)N(C)C(=O)CN(C)C1=O` (stereo not shown) [Compound 69], the IC50 lay in the range of 1 to 100 µM.

`CCC1NC(=O)C(C2OC(Sc3ccc4ccccc4c3)CC2C)N(C)C(=O)C(C(C)C)N(C)C(=O)C(CC(C)C)N(C)C(=O)C(CC(C)C)N(C)C(=O)C(C)NC(=O)C(C)NC(=O)C(CC(C)C)N(C)C(=O)C(C(C)C)NC(=O)C(CC(C)C)N(C)C(=O)CN(C)C1=O` (stereo not shown) [Compound 62] yielded an IC50 of 1 to 100 µM.

The molecule `CCC1NC(=O)C(C2OC(OCc3cc(Cl)c(F)cc3Cl)CC2C)N(C)C(=O)C(C(C)C)N(C)C(=O)C(CC(C)C)N(C)C(=O)C(CC(C)C)N(C)C(=O)C(C)NC(=O)C(C)NC(=O)C(CC(C)C)N(C)C(=O)C(C(C)C)NC(=O)C(CC(C)C)N(C)C(=O)CN(C)C1=O` (stereo not shown) [Compound 103] returned an IC50 of 1 to 100 µM.

`CCC1NC(=O)C(C2OC(SCc3cc(Cl)c(Cl)cc3Cl)CC2C)N(C)C(=O)C(C(C)C)N(C)C(=O)C(CC(C)C)N(C)C(=O)C(CC(C)C)N(C)C(=O)C(C)NC(=O)C(C)NC(=O)C(CC(C)C)N(C)C(=O)C(C(C)C)NC(=O)C(CC(C)C)N(C)C(=O)CN(C)C1=O` (stereo not shown) [Compound 104-s] had a concentration for half-maximal inhibition (IC50) of 1 to 100 µM.

With `CCC1NC(=O)C(C2OC(SC(C)c3cc(Cl)cc(Cl)c3)CC2C)N(C)C(=O)C(C(C)C)N(C)C(=O)C(CC(C)C)N(C)C(=O)C(CC(C)C)N(C)C(=O)C(C)NC(=O)C(C)NC(=O)C(CC(C)C)N(C)C(=O)C(C(C)C)NC(=O)C(CC(C)C)N(C)C(=O)CN(C)C1=O` (stereo not shown) [Compound 92A-s], the IC50 is 1 to 100 µM.

`CCC1NC(=O)C(C2OC(Oc3cc(Cl)cc(OCC4CCOCC4)c3)CC2C)N(C)C(=O)C(C(C)C)N(C)C(=O)C(CC(C)C)N(C)C(=O)C(CC(C)C)N(C)C(=O)C(C)NC(=O)C(C)NC(=O)C(CC(C)C)N(C)C(=O)C(C(C)C)NC(=O)C(CC(C)C)N(C)C(=O)CN(C)C1=O` (stereo not shown) [Compound 67-o] displayed an IC50 of 1 to 100 µM.

`CCC1NC(=O)C(C2OC(Oc3cccc(OCC4CCN(C)CC4)c3)CC2C)N(C)C(=O)C(C(C)C)N(C)C(=O)C(CC(C)C)N(C)C(=O)C(CC(C)C)N(C)C(=O)C(C)NC(=O)C(C)NC(=O)C(CC(C)C)N(C)C(=O)C(C(C)C)NC(=O)C(CC(C)C)N(C)C(=O)CN(C)C1=O` (stereo not shown) [Compound 72-o]: the IC50 fell in the range of 1 to 100 µM.

For the molecule `CCC1NC(=O)C(C2OC(Oc3cccc(OCc4cccnc4)c3)CC2C)N(C)C(=O)C(C(C)C)N(C)C(=O)C(CC(C)C)N(C)C(=O)C(CC(C)C)N(C)C(=O)C(C)NC(=O)C(C)NC(=O)C(CC(C)C)N(C)C(=O)C(C(C)C)NC(=O)C(CC(C)C)N(C)C(=O)CN(C)C1=O` (stereo not shown) [Compound 53A-o], the midpoint of inhibition, the IC50, lay at 10 µM. That is a double-digit micromolar value.

Staying with this test, now noted: given as a range, marked * (asterisk not explained).
The molecule `CCC1NC(=O)C(C2OC(Oc3cc(OCCOC)cc(OCc4cccs4)c3)CC2C)N(C)C(=O)C(C(C)C)N(C)C(=O)C(CC(C)C)N(C)C(=O)C(CC(C)C)N(C)C(=O)C(C)NC(=O)C(C)NC(=O)C(CC(C)C)N(C)C(=O)C(C(C)C)NC(=O)C(CC(C)C)N(C)C(=O)CN(C)C1=O` (stereo not shown) [Compound 56-o] displayed an IC50 of 1 to 100 µM.

For the molecule `CCC1NC(=O)C(C2OC(Sc3cc(OC)cc(OCc4ccccc4)c3)CC2C)N(C)C(=O)C(C(C)C)N(C)C(=O)C(CC(C)C)N(C)C(=O)C(CC(C)C)N(C)C(=O)C(C)NC(=O)C(C)NC(=O)C(CC(C)C)N(C)C(=O)C(C(C)C)NC(=O)C(CC(C)C)N(C)C(=O)CN(C)C1=O` (stereo not shown) [Compound 65], the IC50 lay in the range of 1 to 100 µM.

For `CCC1NC(=O)C(C2OC(Oc3cccc(OCc4ccc(-n5cccn5)cc4)c3)CC2C)N(C)C(=O)C(C(C)C)N(C)C(=O)C(CC(C)C)N(C)C(=O)C(CC(C)C)N(C)C(=O)C(C)NC(=O)C(C)NC(=O)C(CC(C)C)N(C)C(=O)C(C(C)C)NC(=O)C(CC(C)C)N(C)C(=O)CN(C)C1=O` (stereo not shown) [Compound 17A-o], the IC50 was 1 to 100 µM.

For `CCC1NC(=O)C(C2OC(Sc3cc(OCCOC)cc(OCC4CCOCC4)c3)CC2C)N(C)C(=O)C(C(C)C)N(C)C(=O)C(CC(C)C)N(C)C(=O)C(CC(C)C)N(C)C(=O)C(C)NC(=O)C(C)NC(=O)C(CC(C)C)N(C)C(=O)C(C(C)C)NC(=O)C(CC(C)C)N(C)C(=O)CN(C)C1=O` (stereo not shown) [Compound 55], the IC50 fell in the range of 1 to 100 µM.

The test is the same for the next values; noted with them: given as a range; assay not given.
As to `CCC1NC(=O)C(C2OC(OCc3cccc(S(=O)(=O)OCC(C)C)c3)CC2C)N(C)C(=O)C(C(C)C)N(C)C(=O)C(CC(C)C)N(C)C(=O)C(CC(C)C)N(C)C(=O)C(C)NC(=O)C(C)NC(=O)C(CC(C)C)N(C)C(=O)C(C(C)C)NC(=O)C(CC(C)C)N(C)C(=O)CN(C)C1=O` [Compound 75A, [2-((2R,3R)-5-(3-(isobutoxysulfonyl)benzyloxy)-3-methyltetrahydrofuran-2-yl)-2-(methylamino)acetic acid]^1-cyclosporin A], the IC50 lay within 0.001 to 1 µM.

`CCC1NC(=O)C(C2OC(Sc3cccc(OCC4CC4)c3)CC2C)N(C)C(=O)C(C(C)C)N(C)C(=O)C(CC(C)C)N(C)C(=O)C(CC(C)C)N(C)C(=O)C(C)NC(=O)C(C)NC(=O)C(CC(C)C)N(C)C(=O)C(C(C)C)NC(=O)C(CC(C)C)N(C)C(=O)CN(C)C1=O` [Compound 32A, [2-((2R,3R)-5-(3-(cyclopropylmethoxy)phenylthio)-3-methyltetrahydrofuran-2-yl)-2-(methylamino)acetic acid]^1-cyclosporin A] yielded an IC50 of 0.001 to 1 µM.

For the molecule `CCC1NC(=O)C(C2OC(OCc3ccc(OC)cc3)CC2C)N(C)C(=O)C(C(C)C)N(C)C(=O)C(CC(C)C)N(C)C(=O)C(CC(C)C)N(C)C(=O)C(C)NC(=O)C(C)NC(=O)C(CC(C)C)N(C)C(=O)C(C(C)C)NC(=O)C(CC(C)C)N(C)C(=O)CN(C)C1=O` [Compound 83A, [2-((2R,3R)-5-(4-methoxybenzyloxy)-3-methyltetrahydrofuran-2-yl)-2-(methylamino)acetic acid]^1-cyclosporin A], the IC50 lay within 0.001 to 1 µM.

The molecule `CCC1NC(=O)C(C2OC(OCc3cc(Cl)ccc3Cl)CC2C)N(C)C(=O)C(C(C)C)N(C)C(=O)C(CC(C)C)N(C)C(=O)C(CC(C)C)N(C)C(=O)C(C)NC(=O)C(C)NC(=O)C(CC(C)C)N(C)C(=O)C(C(C)C)NC(=O)C(CC(C)C)N(C)C(=O)CN(C)C1=O` [98A + B(1:1), [2-((2R,3R)-5-(2,5-dichlorobenzyloxy)-3-methyltetrahydrofuran-2-yl)-2-(methylamino)acetic acid]^1-cyclosporin A] yielded a half-maximal inhibitory concentration (IC50) of 0.001 to 1 µM.

In turn, `CCCOc1cc(SC2CC(C)C(C3C(=O)NC(CC)C(=O)N(C)CC(=O)N(C)C(CC(C)C)C(=O)NC(C(C)C)C(=O)N(C)C(CC(C)C)C(=O)NC(C)C(=O)NC(C)C(=O)N(C)C(CC(C)C)C(=O)N(C)C(CC(C)C)C(=O)N(C)C(C(C)C)C(=O)N3C)O2)ccc1Cl` [Compound 42A, [2-((2R,3R)-5-(4-chloro-3-propoxyphenylthio)-3-methyltetrahydrofuran-2-yl)-2-(methylamino)acetic acid]^1-cyclosporin A] displayed an IC50 of 0.001 to 1 µM.

For the molecule `CCC1NC(=O)C(C2OC(Sc3ccc(Cl)c(OCCOC)c3)CC2C)N(C)C(=O)C(C(C)C)N(C)C(=O)C(CC(C)C)N(C)C(=O)C(CC(C)C)N(C)C(=O)C(C)NC(=O)C(C)NC(=O)C(CC(C)C)N(C)C(=O)C(C(C)C)NC(=O)C(CC(C)C)N(C)C(=O)CN(C)C1=O` [Compound 45A, [2-((2R,3R)-5-(4-chloro-3-(2-methoxyethoxy)phenylthio)-3-methyltetrahydrofuran-2-yl)-2-(methylamino)acetic acid]^1-cyclosporin A], the IC50 lay within 0.001 to 1 µM.

In turn, `CCC1NC(=O)C(C2OC(Sc3cccc(OC)c3)CC2C)N(C)C(=O)C(C(C)C)N(C)C(=O)C(CC(C)C)N(C)C(=O)C(CC(C)C)N(C)C(=O)C(C)NC(=O)C(C)NC(=O)C(CC(C)C)N(C)C(=O)C(C(C)C)NC(=O)C(CC(C)C)N(C)C(=O)CN(C)C1=O` [Compound 28A, [2-((2R,3R)-5-(3-methoxyphenylthio)-3-methyltetrahydrofuran-2-yl)-2-(methylamino)acetic acid]^1-cyclosporin A] gave an IC50 of 0.001 to 1 µM.

`CCC1NC(=O)C(C2OC(OC(C)c3ccc(Cl)c(Cl)c3)CC2C)N(C)C(=O)C(C(C)C)N(C)C(=O)C(CC(C)C)N(C)C(=O)C(CC(C)C)N(C)C(=O)C(C)NC(=O)C(C)NC(=O)C(CC(C)C)N(C)C(=O)C(C(C)C)NC(=O)C(CC(C)C)N(C)C(=O)CN(C)C1=O` (single isomer, unassigned) [Compound 97A] registered an IC50 of 0.001 to 1 µM.

Molecule `CCC1NC(=O)C(C2OC(Sc3ccc(C)cc3)CC2C)N(C)C(=O)C(C(C)C)N(C)C(=O)C(CC(C)C)N(C)C(=O)C(CC(C)C)N(C)C(=O)C(C)NC(=O)C(C)NC(=O)C(CC(C)C)N(C)C(=O)C(C(C)C)NC(=O)C(CC(C)C)N(C)C(=O)CN(C)C1=O` [Compound 2A, [2-((2R,3R)-3-methyl-5-(p-tolylthio)tetrahydrofuran-2-yl)-2-(methylamino)acetic acid]^1-cyclosporin A] came in with an IC50 of 0.001 to 1 µM.

Turning to `CCC1NC(=O)C(C2OC(Sc3cccc(NC)c3)CC2C)N(C)C(=O)C(C(C)C)N(C)C(=O)C(CC(C)C)N(C)C(=O)C(CC(C)C)N(C)C(=O)C(C)NC(=O)C(C)NC(=O)C(CC(C)C)N(C)C(=O)C(C(C)C)NC(=O)C(CC(C)C)N(C)C(=O)CN(C)C1=O` [Compound 47A, [2-((2R,3R)-3-methyl-5-(3-(methylamino)phenylthio)tetrahydrofuran-2-yl)-2-(methylamino)acetic acid]^1-cyclosporin A], the IC50 lay in the range of 0.001 to 1 µM.
